Test systems include DU-145; EKVX; IGROV-1; KM12; M14; MDA-MB-231; NCI-H226; NCI/ADR-RES; PC-3; SF-539; SK-MEL-28; SN12C; SR; SW-620; TK-10; U-251; UO-31; MDA-N; A498; HCC 2998.
Assay in all cases: growth of human tumour cells (NCI), 48 h

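Briefly, cells in 96-well plates were exposed to five compound concentrations for 48 h, and endpoints were estimated by linear interpolation. Here, GI50 denotes the concentration required for 50% inhibition of growth.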 Active and inactive are the calls of the source. Cut-off read from the data, not from the text of the source: active = GI50 up to about 1.1 µM and inactive = higher. Some results are limits rather than exact numbers.

With `CC1=C(N2CC2)C(=O)c2ccccc2C1=O`, the GI50 in the assay on DU-145 is 0.116 µM (active); with EKVX it was 0.136 µM (active); in the assay on IGROV-1 it was 1.47 µM (inactive); in the assay on KM12, 1.13 µM (inactive); with M14 it was 1.22 µM (inactive); in the assay on MDA-MB-231 it was 13.8 µM (inactive). In addition, the GI50 in the assay on NCI-H226 was 2.06 µM (inactive); with NCI/ADR-RES, 1.06 µM (active); in the assay on PC-3, 0.897 µM (active); in the assay with SF-539, 1.69 µM (inactive); in the assay with SK-MEL-28, 1.85 µM (inactive); in the assay on SN12C it was 0.312 µM (active). Besides, the GI50 with SR was 0.117 µM (active); with SW-620, 0.185 µM (active); in the assay on TK-10, 2.08 µM (inactive); with U-251, 0.895 µM (active); in the assay on UO-31, 0.78 µM (active).

Regarding `CC[C@@]1(O)C[C@H](OC2CC(N(C)C)C(OC3CC(O)C(OC4CCC(=O)C(C)O4)C(C)O3)C(C)O2)c2c(cc3c(c2O)C(=O)c2c(O)ccc(O)c2C3=O)[C@H]1C(=O)OC` (stereo not given in full), the GI50 in the assay on DU-145 is 0.00173 µM (active); in the assay with EKVX it was 0.00492 µM (active); in the assay on IGROV-1, 5.35e-05 µM (active); with KM12 it was 8.77e-05 µM (active); in the assay on M14, 0.000438 µM (active); in the assay on MDA-MB-231 it was 0.00288 µM (active). The GI50 with MDA-N is 0.000427 µM (active); with NCI-H226, 5.83e-05 µM (active); in the assay on PC-3 it was 0.000395 µM (active); with SF-539 it was 0.000114 µM (active); in the assay with SK-MEL-28, 0.000343 µM (active); in the assay with SN12C, 4.18e-05 µM (active). For the same compound, the GI50 in the assay with SR is 0.000101 µM (active); in the assay with SW-620, 5.2e-05 µM (active); with TK-10, 0.00152 µM (active); in the assay on U-251, 6.35e-05 µM (active); in the assay on UO-31 it was 4.22e-05 µM (active).

Regarding `CC1(C)CCC[C@]2(C)[C@@H]1CC[C@@]13O[C@@H]1C1=C(CO)C(=O)OC1=C[C@@H]23`, the GI50 is 27.2 µM (inactive) with A498; 18.4 µM (inactive) in the assay on DU-145; 13.9 µM (inactive) with EKVX; 18.9 µM (inactive) in the assay on HCC 2998; 5.68 µM (inactive) with IGROV-1; 11.9 µM (inactive) in the assay with KM12. For the same compound, the GI50 with M14 was 15.8 µM (inactive); in the assay on MDA-MB-231 it was 31.1 µM (inactive); in the assay with NCI-H226, 15.7 µM (inactive); in the assay on NCI/ADR-RES it was 15.8 µM (inactive); in the assay with PC-3, 14.9 µM (inactive); with SK-MEL-28, 16.6 µM (inactive). The GI50 was 12.9 µM (inactive) in the assay with SN12C; 18.9 µM (inactive) with SW-620; 25.2 µM (inactive) in the assay on TK-10; 24.4 µM (inactive) in the assay with U-251; 11.7 µM (inactive) in the assay with UO-31.

As to `COC(=O)CNC(=O)Nc1cc(N2C(=O)ON3C2C(C)(C)N(O)C3(C)C)ccc1C` (stereo not given), the GI50 with EKVX, with HCC 2998, in the assay on IGROV-1, in the assay on KM12, in the assay with M14 and in the assay with MDA-MB-231 was > 100 µM (inactive) each time. Also, the GI50 in the assay with MDA-N, with NCI-H226, in the assay with NCI/ADR-RES, in the assay with PC-3, with SF-539 and in the assay with SK-MEL-28 was > 100 µM (inactive) in each case. Besides, the GI50 in the assay on SN12C, with SR, with SW-620, with TK-10, in the assay on U-251 and in the assay with UO-31 was > 100 µM (inactive) in each case.

In the case of `O=C(O)CC[N+]1=CCC(c2ccccc2)(c2ccccc2)O1`, the GI50 with A498, with DU-145, in the assay with EKVX, with HCC 2998, in the assay on IGROV-1 and with M14 was > 100 µM (inactive) each time. The GI50 with MDA-MB-231, in the assay on MDA-N, in the assay on NCI-H226, in the assay on PC-3, in the assay on SF-539 and with SK-MEL-28 was > 100 µM (inactive) throughout. For the same compound, the GI50 with SN12C, with SW-620, with TK-10, in the assay with U-251 and with UO-31 was > 100 µM (inactive) throughout.

In the case of `Cc1cc(-c2cscn2)c(O)c([N+](=O)[O-])c1`, the GI50 with A498 is 28.7 µM (inactive); in the assay on EKVX, 65.8 µM (inactive); in the assay on HCC 2998, 81.3 µM (inactive); in the assay on IGROV-1, 55 µM (inactive); in the assay with M14 it was 90.4 µM (inactive); in the assay with MDA-N it was 74.3 µM (inactive). Moreover, the GI50 with NCI/ADR-RES is 46.5 µM (inactive); with PC-3 it was 41.4 µM (inactive); in the assay with SF-539, 56 µM (inactive); with SN12C it was 45 µM (inactive); in the assay on SW-620, 75.7 µM (inactive); in the assay with TK-10 it was 52.7 µM (inactive). In the assay on UO-31, the GI50 is 50.2 µM (inactive).

For `COc1ccccc1NC(=O)C(C#N)=C(SC)SC`, the GI50 in the assay with A498 is > 100 µM (inactive); in the assay on DU-145 it was > 100 µM (inactive); in the assay on EKVX, > 100 µM (inactive); in the assay on HCC 2998, > 100 µM (inactive); with IGROV-1, 51.9 µM (inactive); in the assay with KM12, 6.78 µM (inactive). Moreover, the GI50 in the assay on M14, in the assay with MDA-MB-231, in the assay on MDA-N, in the assay with NCI-H226, in the assay with PC-3 and in the assay with SF-539 was > 100 µM (inactive) each time. The GI50 in the assay on SK-MEL-28, with SN12C, in the assay with SR, with SW-620, with TK-10 and with U-251 was > 100 µM (inactive) throughout. The GI50 with UO-31 was > 100 µM (inactive).

For `CC(C)(C)/N=C1\C(=O)C2(C)CCC1C2(C)C` (stereo not given), the GI50 with A498 was 16.4 µM (inactive); in the assay on DU-145, > 100 µM (inactive); in the assay on EKVX it was > 100 µM (inactive); in the assay with HCC 2998 it was > 100 µM (inactive); in the assay with IGROV-1 it was > 100 µM (inactive); with KM12, > 100 µM (inactive). The GI50 with M14, in the assay on MDA-MB-231, in the assay on NCI-H226, in the assay with NCI/ADR-RES, in the assay with PC-3 and in the assay on SF-539 was > 100 µM (inactive) each time. Besides, the GI50 in the assay with SK-MEL-28, in the assay on SR, in the assay with SW-620, in the assay with TK-10, with U-251 and in the assay with UO-31 was > 100 µM (inactive) in each case.

With `Cc1cccc(C(C)C)c1NC(=O)CC1C(=O)Nc2ccccc2S1(=O)=O` (stereo not given), the GI50 in the assay with A498 was 11.7 µM (inactive); in the assay on EKVX it was 16 µM (inactive); in the assay on HCC 2998, 22.9 µM (inactive); with IGROV-1, 22.5 µM (inactive); in the assay with KM12 it was 19.4 µM (inactive); in the assay on M14, 15.5 µM (inactive). Besides, the GI50 was 18.7 µM (inactive) in the assay on NCI-H226; 5.77 µM (inactive) with SF-539; 17.7 µM (inactive) in the assay on SK-MEL-28; 23.2 µM (inactive) in the assay with SN12C; 1.48 µM (inactive) in the assay on SR; 7.03 µM (inactive) in the assay with SW-620. Further, the GI50 in the assay on TK-10 is 29 µM (inactive); with U-251, 24.2 µM (inactive); in the assay on UO-31, 13.5 µM (inactive).

For `O=C(Cc1ccccc1)Oc1ccc2c(-c3ccccc3)c(C(=O)Nc3ccc(Cl)cc3)c(=O)oc2c1`, the GI50 in the assay with A498, in the assay on EKVX, in the assay with HCC 2998, in the assay on IGROV-1, in the assay with KM12 and with M14 was > 100 µM (inactive) throughout. The GI50 with NCI-H226, in the assay with SF-539, with SK-MEL-28, with SN12C, with SR and in the assay with SW-620 was > 100 µM (inactive) in each case. The GI50 in the assay on TK-10, in the assay on U-251 and in the assay with UO-31 was > 100 µM (inactive) in each case.

For `Cc1ccccc1Nc1nc2c(s1)C(=O)c1ccccc1C2=O`, the GI50 was 22.4 µM (inactive) in the assay on A498; 6.67 µM (inactive) with DU-145; 13.3 µM (inactive) in the assay with EKVX; 17.7 µM (inactive) in the assay with HCC 2998; 9.55 µM (inactive) in the assay on IGROV-1; 9.38 µM (inactive) in the assay on KM12. In addition, the GI50 in the assay on M14 was 5.82 µM (inactive); with MDA-MB-231 it was 3.41 µM (inactive); in the assay with MDA-N, 1.95 µM (inactive); in the assay on NCI-H226 it was 14.4 µM (inactive); with PC-3, 2.26 µM (inactive); with SF-539, 5.73 µM (inactive). In addition, the GI50 is 9.86 µM (inactive) in the assay on SK-MEL-28; 3.3 µM (inactive) with SN12C; 3.27 µM (inactive) with SR; 2.49 µM (inactive) in the assay with SW-620; 22.7 µM (inactive) in the assay with TK-10; 4.09 µM (inactive) with U-251. Besides, the GI50 in the assay with UO-31 was 5.07 µM (inactive).

For `O=C1Nc2ccc(Br)cc2/C1=N/Nc1ccc([N+](=O)[O-])cc1`, the GI50 with A498 was 20.7 µM (inactive); in the assay with EKVX, 23.9 µM (inactive); in the assay with HCC 2998, 33.3 µM (inactive); with IGROV-1, 38.8 µM (inactive); with KM12, 24.6 µM (inactive); in the assay with M14 it was 23.6 µM (inactive). The GI50 is 18 µM (inactive) in the assay with NCI-H226; 14.2 µM (inactive) in the assay with SF-539; 16.8 µM (inactive) in the assay with SK-MEL-28; 19.3 µM (inactive) in the assay on SN12C; 22.8 µM (inactive) in the assay with SR; 26.4 µM (inactive) in the assay on SW-620. The GI50 is 18.3 µM (inactive) in the assay on TK-10, 18.7 µM (inactive) with U-251 and 30.1 µM (inactive) with UO-31.

Source of the values: ChEMBL document CHEMBL1201862, “PubChem BioAssay data set” (2004).
